Like-named read-outs stand apart in the source and are kept apart here.
How the values were obtained:
[1] = tested on: Phosphorylation of ERK1/2 in MIA PaCa-2 cells; assay: Phospho-ERK1/2 MSD assay in MIA PaCa-2 cells; type: cell-based; details: read-out: p-ERK IC50 (2 h; MIA PaCa-2), 2 h compound treatment
Outline: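 IC50 comes from a 4-parameter logistic fit of MSD phospho-ERK1/2 signal in lysates. Before lysis, MIA PaCa-2 or A549 cells were exposed to titrated compound for 2 or 4 h at 37 °C, followed by a 10 min 10 ng/mL EGF stimulus.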

[2] = target: GDP-bound KRAS protein (aa 1-169), containing both G12C and C118A amino acid substitutions (Homo sapiens, UniProt P01116, C118A/G12C); assay: Coupled nucleotide exchange assay (SOS-mediated, AlphaScreen); type: biochemical; details: 5 min compound pre-incubation; for IC50: read-out: Coupled exchange IC50 (5 min)
Chain of GDP-bound KRAS protein (aa 1-169), containing both G12C and C118A amino acid substitutions (P01116 1-169 isoform P01116-2 G12C/C118A): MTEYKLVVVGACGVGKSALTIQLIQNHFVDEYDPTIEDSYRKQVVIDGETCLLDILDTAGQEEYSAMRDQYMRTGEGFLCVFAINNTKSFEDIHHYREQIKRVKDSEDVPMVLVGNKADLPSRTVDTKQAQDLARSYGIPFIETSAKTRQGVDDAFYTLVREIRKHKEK

With C=CC(=O)N1CCN(c2nc(=O)n(-c3nonc3C(C)C)c3nc(-c4c(O)cccc4F)c(Cl)cc23)[C@@H](C)C1 [Example 54-52, 6-chloro-7-(2-fluoro-6-hydroxyphenyl)-4-((2S)-2-methyl-4-(2-propenoyl)-1-piperazinyl)-1-(4-(2-propanyl)-1,2,5-oxadiazol-3-yl)pyrido[2,3-d]pyrimidin-2(1H)-one] the IC50 ([1]; Homo sapiens, MIA PaCa-2, 2 h) was 666 nM and the “Coupled exchange IC50 (5 min)” value [2] was 0.445 | nda μM.

With C=CC(=O)N1CCN(c2nc(=O)n(-c3scnc3C(C)C)c3nc(-c4ccccc4F)c(Cl)cc23)[C@@H](C)C1 [Example 55-18, 6-chloro-7-(2-fluorophenyl)-4-((2S)-2-methyl-4-(2-propenoyl)-1-piperazinyl)-1-(4-(2-propanyl)-1,3-thiazol-5-yl)pyrido[2,3-d]pyrimidin-2(1H)-one] the IC50 ([1]; Homo sapiens, MIA PaCa-2, 2 h) was 83 nM and the “Coupled exchange IC50 (5 min)” value [2] was 0.067 | nda μM.

With C=CC(=O)N1CCN(c2nc(=O)n(-c3c(C4CC4)ccnc3C)c3nc(-c4ccccc4F)c(F)cc23)[C@@H](C)C1 (single isomer, unassigned) [Example 58-20-2] the IC50 ([1]; Homo sapiens, MIA PaCa-2, 2 h) was 410 nM and the “Coupled exchange IC50 (5 min)” value [2] was 0.807 | nda μM.

In the case of C=CC(=O)N1CCN(c2nc(=O)n(-c3cccnc3CC(C)C)c3nc(-c4ccccc4F)c(Cl)cc23)[C@@H](C)C1 [Example 101, 6-Chloro-7-(2-fluorophenyl)-4-((2S)-2-methyl-4-(2-propenoyl)-1-piperazinyl)-1-(2-(2-methylpropyl)-3-pyridinyl)pyrido[2,3-d]pyrimidin-2(1H)-one], the IC50 ([1]; Homo sapiens, MIA PaCa-2, 2 h) is reported as 148 nM and the “Coupled exchange IC50 (5 min)” value [2] is reported as 0.147 | nda μM.

In the case of C=CC(=O)N1CCN(c2nc(=O)n(-c3c(C)ccnc3C(C)C)c3nc(-c4c(N)cccc4F)c(Cl)cc23)[C@@H](C)C1 (atropisomer, axis not shown; (M)) [Example 73-1, (M)-7-(2-Amino-6-fluorophenyl)-6-chloro-1-(4-methyl-2-(2-propanyl)-3-pyridinyl)-4-((2S)-2-methyl-4-(2-propenoyl)-1-piperazinyl)pyrido[2,3-d]pyrimidin-2(1H)-one], the IC50 [1] is reported as 14 nM and the IC50 [2] is reported as 12 nM.

For C=CC(=O)N1CCN(c2nc(=O)n(-c3c(C)cccc3CC)c3nc(-c4c(O)cccc4F)c(F)cc23)[C@@H](C)C1 (single isomer, unassigned) [Example 57-14-1], the IC50 ([1]; Homo sapiens, MIA PaCa-2, 2 h) was 348 nM and the “Coupled exchange IC50 (5 min)” value [2] was 0.288 | nda μM.

In the case of C=CC(=O)N1CCN(c2nc(=O)n(-c3c(C)cc(N(C)C)cc3C(C)C)c3nc(-c4ccccc4F)c(Cl)cc23)[C@@H](C)C1 [Example 55-16, 6-chloro-1-(4-(dimethylamino)-2-methyl-6-(2-propanyl)phenyl)-7-(2-fluorophenyl)-4-((2S)-2-methyl-4-(2-propenoyl)-1-piperazinyl)pyrido[2,3-d]pyrimidin-2(1H)-one], the IC50 ([1]; Homo sapiens, MIA PaCa-2, 2 h) is reported as 199 nM and the “Coupled exchange IC50 (5 min)” value [2] is reported as 0.154 | nda μM.

In the case of C=CC(=O)N1CCN(c2nc(=O)n(-c3ccccc3N(C)C)c3nc(-c4c(O)cccc4F)c(Cl)cc23)[C@@H](C)C1 [Example 54-42, 6-chloro-1-(2-(dimethylamino)phenyl)-7-(2-fluoro-6-hydroxyphenyl)-4-((2S)-2-methyl-4-(2-propenoyl)-1-piperazinyl) pyrido[2,3-d]pyrimidin-2(1H)-one], the IC50 ([1]; Homo sapiens, MIA PaCa-2, 2 h) is reported as 322 nM and the “Coupled exchange IC50 (5 min)” value [2] is reported as 0.79 | nda μM.

C=CC(=O)N1CCN(c2nc(=O)n(-c3c(C(F)(F)F)ccnc3C(C)C)c3nc(-c4c(O)cccc4F)c(F)cc23)[C@@H](C)C1 [Example 58-3, 6-fluoro-7-(2-fluoro-6-hydroxyphenyl)-4-((2S)-2-methyl-4-(2-propenoyl)-1-piperazinyl)-1-(2-(2-propanyl)-4-(trifluoromethyl)-3-pyridinyl)pyrido[2,3-d]pyrimidin-2(1H)-one] was tested, and the IC50 ([1]; Homo sapiens, MIA PaCa-2, 2 h) was 181 nM and the “Coupled exchange IC50 (5 min)” value [2] was 0.261 | nda μM.

In the case of C=CC(=O)N1CCN(c2nc(=O)n(-c3c(C)ccnc3C(C)C)c3nc(-c4c(F)ccc5[nH]ncc45)c(Cl)cc23)[C@@H](C)C1 (single isomer, unassigned) [Example 82-2], the IC50 ([1]; Homo sapiens, MIA PaCa-2, 2 h) is reported as 239 nM and the “Coupled exchange IC50 (5 min)” value [2] is reported as 0.096 | nda μM.

In the case of C=CC(=O)N1CCN(c2nc(=O)n(-c3c(F)cccc3C(C)C)c3nc(-c4ccccc4F)c(F)cc23)[C@@H](C)C1 (single isomer, unassigned) [Example 59-3-1], the IC50 ([1]; Homo sapiens, MIA PaCa-2, 2 h) is reported as 343 nM and the “Coupled exchange IC50 (5 min)” value [2] is reported as 0.128 | nda μM.

C=CC(=O)N1CCN(c2nc(=O)n(-c3c(C(C)C)cccc3N(C)C)c3nc(-c4ccccc4F)c(Cl)cc23)[C@@H](C)C1 (single isomer, unassigned) [Example 54-104-2] was tested, and the IC50 ([1]; Homo sapiens, MIA PaCa-2, 2 h) was 210 nM and the “Coupled exchange IC50 (5 min)” value [2] was 0.035 | nda μM.

Work on C=CC(=O)N1CCN(c2nc(=O)n(-c3c(C)ccnc3C(C)C)c3nc(-c4c(C)ccc5[nH]ncc45)c(Cl)cc23)[C@@H](C)C1 (atropisomer, axis not shown; (M)) [Example 82-1, (M)-6-Chloro-7-(5-methyl-1H-indazol-4-yl)-1-(4-methyl-2-(2-propanyl)-3-pyridinyl)-4-((2S)-2-methyl-4-(2-propenoyl)-1-piperazinyl)pyrido[2,3-d]pyrimidin-2(1H)-one] yielded an IC50 [1] of 106 nM and an IC50 [2] of 77 nM.

In the case of C=CC(=O)N1CCN(c2nc(=O)n(-c3c(OC)ncnc3OC)c3nc(-c4c(O)cccc4F)c(Cl)cc23)[C@@H](C)C1 [Example 55-3, 6-chloro-1-(4,6-dimethoxy-5-pyrimidinyl)-7-(2-fluoro-6-hydroxyphenyl)-4-((2S)-methyl-4-(2-propenoyl)-1-piperazinyl)pyrido[2,3-d]pyrimidin-2(1H)-one], the IC50 ([1]; Homo sapiens, MIA PaCa-2, 2 h) is reported as 918 nM and the “Coupled exchange IC50 (5 min)” value [2] is reported as 0.966 | nda μM.

For C=CC(=O)N1CCN(c2nc(=O)n(-c3c(F)cccc3C(C)C)c3nc(-c4ccccc4F)c(F)cc23)[C@@H](C)C1 [Example 59-3, 6-fluoro-7-(2-fluorophenyl)-1-(2-fluoro-6-(2-propanyl)phenyl)-4-((2S)-2-methyl-4-(2-propenoyl)-1-piperazinyl)pyrido[2,3-d]pyrimidin-2(1H)-one], the IC50 ([1]; Homo sapiens, MIA PaCa-2, 2 h) was 619 nM and the “Coupled exchange IC50 (5 min)” value [2] was 0.521 | nda μM.

For C=CC(=O)N1CCN(c2nc(=O)n(-c3scnc3C(C)C)c3nc(-c4ccccc4F)c(F)cc23)[C@@H](C)C1 [Example 57-12, 6-fluoro-7-(2-fluorophenyl)-4-((2S)-2-methyl-4-(2-propenoyl)-1-piperazinyl)-1-(4-(2-propanyl)-1,3-thiazol-5-yl)pyrido[2,3-d]pyrimidin-2(1H)-one], the IC50 ([1]; Homo sapiens, MIA PaCa-2, 2 h) was 539 nM and the “Coupled exchange IC50 (5 min)” value [2] was 0.472 | nda μM.

For C=CC(=O)N1CCN(c2nc(=O)n(-c3c(F)cccc3C(C)C)c3nc(-c4c(O)cccc4F)c(F)cc23)[C@@H](C)C1 [Example 59-2, 6-fluoro-7-(2-fluoro-6-hydroxyphenyl)-1-(2-fluoro-6-(2-propanyl)phenyl)-4-((2S)-2-methyl-4-(2-propenoyl)-1-piperazinyl)pyrido[2,3-d]pyrimidin-2(1H)-one], the IC50 ([1]; Homo sapiens, MIA PaCa-2, 2 h) was 737 nM and the “Coupled exchange IC50 (5 min)” value [2] was 0.257 | nda μM.

With C=CC(=O)N1CCN(c2nc(=O)n(-c3c(C)cccc3C(C)C)c3nc(-c4ccccc4F)c(C)cc23)[C@@H](C)C1 [Example 102, 7-(2-Fluorophenyl)-6-methyl-1-(2-methyl-6-(2-propanyl)phenyl)-4-((2S)-2-methyl-4-(2-propenoyl)-1-piperazinyl)pyrido[2,3-d]pyrimidin-2(1H)-one] the IC50 ([1]; Homo sapiens, MIA PaCa-2, 2 h) was 667 nM and the “Coupled exchange IC50 (5 min)” value [2] was 0.421 | nda μM.
